Reference: patent US7019144B2, “1,2,4-Triazole derivative, method for preparing the same, and pharmaceutical composition containing the same” (CJ Corp., priority 2002, dated 2006)

Legend:
COX-1 = molecular target: T1, COX-1 (Homo sapiens, UniProt P23219); assay: Assay for the COX-1 inhibitory activity using U-937 (PGE2 inhibition); type: cell-based; settings: for inhibition at 1 µM: 1 μM test compound, U-937 human lymphoma cells, PGE2 inhibition vs DMSO, read-out: Cyclooxygenase (COX) Inhibition (%) COX-1 (1 μM); for COX-1 inhibitory activity in comparison with the reference (Valdecoxib): 1 μM, U-937, comparison in words
T1 construct: host or cells: U-937 human lymphoma cells
Description: The collected cells were diluted with HBSS (×1, Hank's balanced salt solution) to a concentration of 1×10^6 cells/ml. 1 ml of the dilute cell solution was placed into each well of 12-well plates. 5 μl of 1 μM solution of a test compound in DMSO and 5 μl of DMSO as a control were added to the wells. The wells were incubated in CO2 incubator at 37° C. for 15 minutes. Separately, 10 mM stock solution of arachidonic acid in ethanol was diluted ten times in ethanol to prepare 1 mM solution of arachidonic acid. Arachidonic acid acts as a substrate. 10 μl of the 1 mM solution of arachidonic acid was added to each well and incubated at CO2 incubator at 37° C. for 30 minutes. The cell solution of each well was placed in a centrifuge test tube and centrifuged at 10,000 rpm at 4° C. for 5 minutes. The concentration of PGE2 in the collected cells and the supernatant was quantified by means of a monoclonal kit (Cayman Chemicals). The percentages of PGE2 inhibition in a group of the test compound-treated cells in relation to a group of the DMSO-treated cells were calculated. Based on the calculated values, the COX-1 inhibitory activities were evaluated.
(§1) The percentages of the COX inhibition were calculated according to the following equation: % Inhibition=(concentration of PGE2 in test compound-untreated sample−concentration of PGE2 in test compound-treated sample)/(concentration of PGE2 in test compound-untreated sample)×100

COX-2 = molecular target: T2, COX-2 (Mus musculus, UniProt Q05769); assay: Assay for the COX-2 inhibitory activity using RAW 264.7 cell line (PGE2, interferon γ/LPS induced); type: cell-based; settings: for inhibition at 0.01 µM: RAW264.7, 10 nM test compound, RAW 264.7 cells, interferon γ + LPS, 18 hours, PGE2, read-out: Cyclooxygenase (COX) Inhibition (%) COX-2 (10 nM); for COX-2 inhibitory activity in comparison with the reference (Valdecoxib): 10 nM, RAW 264.7, comparison in words; for selectivity (COX-2 over COX-1): judged from Table 1, in words
T2 construct: host or cells: RAW 264.7 cells, aspirin-pretreated, then induced with interferon gamma and LPS
T2 sequence (Q05769 18-604): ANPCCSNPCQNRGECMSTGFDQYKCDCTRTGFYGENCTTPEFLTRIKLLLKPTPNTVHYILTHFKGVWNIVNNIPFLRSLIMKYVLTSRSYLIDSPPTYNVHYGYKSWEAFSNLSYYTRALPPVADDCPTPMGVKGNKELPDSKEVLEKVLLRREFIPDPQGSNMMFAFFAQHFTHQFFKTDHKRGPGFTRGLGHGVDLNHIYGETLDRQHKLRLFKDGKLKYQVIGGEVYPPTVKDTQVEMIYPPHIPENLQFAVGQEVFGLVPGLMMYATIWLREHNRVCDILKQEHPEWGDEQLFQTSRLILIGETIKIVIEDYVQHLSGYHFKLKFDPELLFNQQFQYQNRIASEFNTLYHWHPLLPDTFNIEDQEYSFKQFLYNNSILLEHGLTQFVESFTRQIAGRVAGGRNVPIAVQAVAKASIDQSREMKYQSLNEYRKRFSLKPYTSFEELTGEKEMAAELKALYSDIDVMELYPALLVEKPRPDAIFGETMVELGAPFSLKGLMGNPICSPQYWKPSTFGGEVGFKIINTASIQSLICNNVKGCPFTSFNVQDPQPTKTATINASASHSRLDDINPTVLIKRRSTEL
Description: Each well was treated with 250 μM of aspirin and incubated at 37° C. for 2 hours. […] Then, each well was treated with interferon γ (100 units/ml) and Iipopolysaccharide (LPS, 100 ng/ml) and incubated for 18 hours. The culture media were transferred to another test tubes. The concentration of PGE2 was quantified by means of the EIA kit (Cayman Chemicals).
as §1

[1] = test system: carrageenan-induced paw edema; assay: Carrageenan-induced paw edema test in rats; type: in vivo; settings: for Inhibitory effect (% inhibition): oral administration, foot swelling 3 hours after carrageenan injection vs control
Description: 2. Carrageenan-induced Paw Edema Test in Rats
The day before the test date, rats were selected in each group so that the average body weight was as close as possible, and the rats were fasted by feed withdrawal prior to the test. At the test date, the rats were orally administered with the test compounds and a control material. After 1 hour, the volume (V0h) of a predetermined portion of the left hind foot of the rats was measured with a plethysmometer. 100 μl of 1% carrageenan solution was subcutaneously injected to the left hind foot of the rats using a syringe with 1 ml capacity. Three hours after the injection of the carrageenan, the volume (V3h) of the predetermined portion of the foot was again measured. The foot swelling variation […] in a group of test compound-treated rats was compared with that of a group of control material-treated rats. With the supposition of 0% inhibition by the control (control material-treated rats), the inhibition percentage of edema of each test compound was determined.

T1 sequence (P23219 24-599): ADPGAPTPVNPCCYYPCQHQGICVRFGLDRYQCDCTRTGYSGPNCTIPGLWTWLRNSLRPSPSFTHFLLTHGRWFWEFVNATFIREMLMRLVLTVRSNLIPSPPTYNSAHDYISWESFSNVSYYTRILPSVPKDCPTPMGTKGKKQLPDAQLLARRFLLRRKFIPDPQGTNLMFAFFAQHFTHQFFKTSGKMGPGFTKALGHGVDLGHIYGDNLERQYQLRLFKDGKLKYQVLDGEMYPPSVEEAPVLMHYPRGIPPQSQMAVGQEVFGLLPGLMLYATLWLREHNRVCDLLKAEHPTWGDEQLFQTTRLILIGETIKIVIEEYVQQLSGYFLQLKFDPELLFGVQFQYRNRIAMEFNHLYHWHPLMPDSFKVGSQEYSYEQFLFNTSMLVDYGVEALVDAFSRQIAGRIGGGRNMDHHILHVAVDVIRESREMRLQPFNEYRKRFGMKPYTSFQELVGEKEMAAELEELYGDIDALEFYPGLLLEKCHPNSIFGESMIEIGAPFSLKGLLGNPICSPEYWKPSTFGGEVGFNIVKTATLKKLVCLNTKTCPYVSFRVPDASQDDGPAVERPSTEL

Compound | inhibition at 1 µM (COX-1) [%] | inhibition at 0.01 µM (COX-2) [%] | other results
CS(=O)(=O)c1ccc(-n2nc(C(F)(F)F)nc2-c2cccc(Cl)c2)cc1 [Example 30, 5-(3-chlorophenyl)-1-(4-methanesulfonylphenyl)-3-trifluoromethyl-1H-[1,2,4]triazole] | 18.6 | 7.32 | 
COc1ccc2c(c1)c(CC(=O)O)c(C)n2C(=O)c1ccc(Cl)cc1 [Indomethacine, reference compound] |  |  | Inhibitory effect (% inhibition) [1]: 40.1 % inhibition
CS(=O)(=O)c1ccc(-n2nc(C(F)(F)F)nc2-c2ccc3c(c2)OCO3)cc1 [Example 40, 5-benzo[1,3]dioxol-5-yl-1-(4-methanesulfonylphenyl)-3-trifluoromethyl-1H-[1,2,4]triazole] | 18.7 | 33.7 | COX-1 inhibitory activity in comparison with the reference (Valdecoxib) (COX-1): the same as or lower; COX-2 inhibitory activity in comparison with the reference (Valdecoxib) (COX-2): remarkably enhanced; selectivity (COX-2 over COX-1) (COX-2): excellent selectivities
COc1ccc(-c2nc(C(F)(F)F)nn2-c2ccc(S(C)(=O)=O)cc2)c(OC)c1 [Example 32, 5-(2,4-dimethoxyphenyl)-1-(4-methanesulfonylphenyl)-3-trifluoromethyl-1H-[1,2,4]triazole] | 19.9 | 12.6 | 
COc1ccc(-c2nc(C(F)(F)F)nn2-c2ccc(S(C)(=O)=O)cc2)cc1Cl [Example 39, 5-(3-chloro-4-methoxyphenyl)-1-(4-methanesulfonylphenyl)-3-trifluoromethyl-1H-[1,2,4]triazole] | 12.5 | 32.6 | COX-1 inhibitory activity in comparison with the reference (Valdecoxib) (COX-1): the same as or lower; COX-2 inhibitory activity in comparison with the reference (Valdecoxib) (COX-2): remarkably enhanced; selectivity (COX-2 over COX-1) (COX-2): excellent selectivities
COc1ccc(-c2nc(C(F)(F)F)nn2-c2ccc(S(C)(=O)=O)nn2)cc1 [Example 50, 3-[5-(4-methoxyphenyl)-3-trifluoromethyl-[1.2.4]triazol-1-yl]-6-methanesulfonyl pyridazine] | 10.6 | 4.32 | 
COc1ccc(-c2nc(C(F)(F)F)nn2-c2ccc(S(C)(=O)=O)nc2)cc1 [Example 48, 2-methanesulfonyl-5-[5-(4-methoxyphenyl)-3-trifluoromethyl-[1,2,4]triazol-1-yl]pyridine] | 28.8 | 5.63 | 
CS(=O)(=O)c1ccc(-n2nc(C(F)(F)F)nc2-c2ccccc2)cc1 [Example 25, 1-(4-methanesulfonylphenyl)-5-phenyl-3-trifluoromethyl-1H-[1,2,4]triazole] | 29.2 | 7.62 | 
CS(=O)(=O)c1ccc(-n2nc(C(F)(F)F)nc2-c2cccc(C(F)(F)F)c2)cc1 [Example 31, 5-(3-trifluoromethylphenyl)-1-(4-methanesulfonylphenyl)-3-trifluoromethyl-1H-[1,2,4]triazole] | 16.5 | 5.66 | 
CS(=O)(=O)c1ccc(-n2nc(C(F)(F)F)nc2-c2ccc([N+](=O)[O-])cc2Cl)cc1 [Example 38, 5-(4-nitro-2-chlorophenyl)-1-(4-methanesulfonylphenyl)-3-trifluoromethyl-1H-[1,2,4]triazole] | 19.5 | 5.95 | 
CS(=O)(=O)c1ccc(-n2nc(C(F)(F)F)nc2/C=C/c2ccccc2)cc1 [Example 33, 5-styryl-1-(4-methanesulfonylphenyl)-3-trifluoromethyl-1H-[1,2,4]triazole] | 19.2 | 19.2 | 
Cc1ccc(-c2cc(C(F)(F)F)nn2-c2ccc(S(N)(=O)=O)cc2)cc1 [Celecoxib, reference compound] |  |  | Inhibitory effect (% inhibition) [1]: 23.9 % inhibition
CS(=O)(=O)c1ccc(-n2nc(C(F)(F)F)nc2-c2ccc(Br)cc2)nn1 [Example 49, 3-[5-(4-bromophenyl)-3-trifluoromethyl-[1,2,4]triazol-1-yl]-6-methanesulfonyl pyridazine] | 14.6 | 3.21 | 

Continued, in another order:

inhibition at 1 µM (COX-1) [%] | inhibition at 0.01 µM (COX-2) [%] | Compound | other results
21.9 | 4.26 | CS(=O)(=O)c1ccc(-n2nc(C(F)(F)F)nc2-c2ccc(Br)cc2)cn1 [Example 47, 2-methanesulfonyl-5-[5-(4-bromophenyl)-3-trifluoromethyl-[1,2,4]triazol-1-yl]pyridine] | 
23.1 | 29.9 | NS(=O)(=O)c1ccc(-n2nc(C(F)(F)F)nc2-c2ccc(Br)cc2)cc1 [Example 44, 4-[5-(4-bromophenyl)-3-trifluoromethyl-[1,2,4]triazol-1-yl]benzene sulfonamide] | Inhibitory effect (% inhibition) [1]: 28.8 % inhibition; COX inhibitory effect (paw edema % inhibition) in comparison with Celecoxib ([1]; oral, comparison in words): remarkably improved; COX-1 inhibitory activity in comparison with the reference (Valdecoxib) (COX-1): the same as or lower; COX-2 inhibitory activity in comparison with the reference (Valdecoxib) (COX-2): remarkably enhanced; selectivity (COX-2 over COX-1) (COX-2): excellent selectivities
23.7 | 8.92 | CS(=O)(=O)c1ccc(-n2nc(C(F)(F)F)nc2-c2ccc(C#N)cc2)cc1 [Example 37, 5-(4-cyanophenyl)-1-(4-methanesulfonylphenyl)-3-trifluoromethyl-1H-[1,2,4]triazole] | 
38.8 | 10.5 | CS(=O)(=O)c1ccc(-n2nc(C(F)(F)F)nc2-c2ccc(Cl)cc2)cc1 [Example 26, 5-(4-chlorophenyl)-1-(4-methanesulfonylphenyl)-3-trifluoromethyl-1H-[1,2,4]triazole] | 
21.6 | 6.23 | CC(C)(C)c1ccc(-c2nc(C(F)(F)F)nn2-c2ccc(S(C)(=O)=O)cc2)cc1 [Example 36, 5-(4-t-butylphenyl)-1-(4-methanesulfonylphenyl)-3-trifluoromethyl-1H-[1,2,4]triazole] | 
16.7 | 8.88 | CS(=O)(=O)c1ccc(-n2nc(C(F)(F)F)nc2-c2ccncc2)cc1 [Example 41, 4-[2-(4-methanesulfonylphenyl)-5-trifluoromethyl-2H-[1,2,4]triazol-3-yl]pyridine] | 
38 | 12.1 | Cc1ccc(-c2nc(C(F)(F)F)nn2-c2ccc(S(N)(=O)=O)cc2)cc1 [Example 42, 4-(5-p-tolyl-3-trifluoromethyl-[1,2,4]triazol-1-yl)benzenesulfonamide] | 
16.7 | 6.23 | CS(=O)(=O)c1ccc(-n2nc(C(F)(F)F)nc2-c2cccc(Br)c2)cc1 [Example 29, 5-(3-bromophenyl)-1-(4-methanesulfonylphenyl)-3-trifluoromethyl-1H-[1,2,4]triazole] | 
